Among the data in patent US20240270762A1, “PENICILLIN-BINDING PROTEIN INHIBITORS” (priority 2021, published 2024) are IC50, EC50 and MIC values, retold here.

Converted amounts (≈) assume the structure as drawn. Bounds are passed on as bounds.

Experiment [1] concerns the target T1, PBP3 from Acinetobacter baumannii (ATCC 19606) (Acinetobacter baumannii, UniProt A0ABX6CK25).
T1 sequence (A0ABX6CK25 64-610): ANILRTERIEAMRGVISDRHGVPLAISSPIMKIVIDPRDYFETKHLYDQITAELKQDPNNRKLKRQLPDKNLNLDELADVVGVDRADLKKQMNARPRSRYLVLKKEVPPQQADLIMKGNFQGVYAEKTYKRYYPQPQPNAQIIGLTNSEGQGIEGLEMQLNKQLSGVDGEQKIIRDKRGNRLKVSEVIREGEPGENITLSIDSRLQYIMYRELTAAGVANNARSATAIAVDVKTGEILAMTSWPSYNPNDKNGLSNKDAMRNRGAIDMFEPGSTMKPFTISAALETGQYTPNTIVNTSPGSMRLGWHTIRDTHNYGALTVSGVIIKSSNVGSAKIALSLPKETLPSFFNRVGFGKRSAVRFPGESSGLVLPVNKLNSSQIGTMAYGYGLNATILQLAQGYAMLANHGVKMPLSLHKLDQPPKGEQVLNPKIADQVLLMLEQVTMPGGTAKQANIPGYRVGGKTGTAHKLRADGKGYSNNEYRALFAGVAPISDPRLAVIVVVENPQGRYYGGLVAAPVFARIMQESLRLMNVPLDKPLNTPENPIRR
Put plainly: Bocillin-FL fluorescence polarization competition binding, A. baumannii PBP3. The conditions noted are these: fluorescence polarization competition binding assay using Bocillin-FL; read-out: A. baumannii PBP3 Potency. The source says: (§1) To determine the ability of boronic acid-based test PBP inhibitors to bind Penicillin Binding Proteins (PBPs), Bocillin-FL (fluorescently-labeled penicillin V; ThermoFisher Scientific) was used in a fluorescence polarization (FP) competition binding assay to assess inhibitor binding to PBP3 from Escherichia coli (K-12), PBP3 from Pseudomonas aeruginosa (PAO1), PBP1a and PBP3 from Acinetobacter baumannii (ATCC 19606), and PBP2 from Neisseria gonorrhoeae (FA19). PBPs were cloned and purified as described previously (E. coli PBP3, King, D. T, et al., ACS Infectious Diseases 2015, 1, 175-184; P. aeruginosa PBP3, Han et. al., PNAS 2010, 107 (51), 22002-22007; A. baumannii PBPs, Penwell et. al., Antimicrob. Agents Chemother. 2015, 59 (3), 1680-1689; N. gonorrhoeae PBP2, Singh et. al., J. Biol. Chem. 2019, 294 (38), 14020-14032). To establish assay conditions for competition binding, enzyme titration/saturation binding experiments were initially performed. Bocillin-FL was prepared at 0.2 μM in a buffer comprised of 50 mM Hepes (pH 8.0), 300 mM NaCl and 10% (v/v) glycerol for reactions with E. coli, P. aeruginosa and N. gonorrhoeae PBPs, and 25 mM Tris (pH 8.0), 200 mM NaCl, 10% (v/v) glycerol and 0.005% (v/v) Tween 20 for reactions with A. baumannii PBPs. Saturation binding was performed by mixing 40 μl of PBP solutions ranging in concentrations from 0-24 μM with 40 μl of the 0.2 μM Bocillin-FL solution, in individual wells of a black 384-well microplate. FP was measured immediately upon mixing (Excitation, 490 nm; Emission, 520 nm; g-factor, 0.96), using a Cytation3 (BioTek) microplate reader and measured continuously for up to 120 minutes. The FP response stabilized after 15 minutes for P. aeruginosa and A. baumannii PBP3, 30 minutes for E. coli PBP3 and A. baumannii PBP1a, and less than 1 minute for N. gonorrhoeae PBP2. […] The competition binding assay (80 μl final volume) was validated using beta-lactams and PBPs at final concentrations of: 1.5 μM for E. coli PBP3; 0.75 μM for P. aeruginosa PBP3; 1 μM for A. baumannii PBP1a; 0.2 μM for A. baumannii PBP3; and 0.25 μM for N. gonorrhoeae PBP2. Bocillin-FL was at 0.1 μM (0.05 μM with A. baumannii PBP1a) and beta-lactam concentrations ranged from 0-1,000 μM. E. coli PBP3 was incubated with increasing concentrations of ampicillin in a black 384-well microplate (Corning) for 30 minutes. P. aeruginosa PBP3 was incubated for 15 minutes with aztreonam, whereas A. baumannii PBP1a and PBP3 were incubated for 15 minutes with meropenem, and then Bocillin-FL was added followed immediately by the FP measurement for up to 60 minutes. […] The beta-lactam potency was reported as the concentration of beta-lactam required to reduce the amount of PBP bound-Bocillin-FL by 50% (EC50). […] The EC50 of aztreonam was determined to be <0.5 μM for P. aeruginosa PBP3. […] Binding assays for boronic acid PBP inhibitors were performed in an identical fashion for the respective PBPs.

In experiment [2] the target is T2, PBP3 from Pseudomonas aeruginosa (PAO1) (Pseudomonas aeruginosa, UniProt G3XD46).
T2 construct: made in house
The experiment in a line: Bocillin-FL fluorescence polarization competition binding, P. aeruginosa PBP3. As to conditions: for IC50: Binding affinity to P. aeruginosa PBP3, fluorescence polarization competition binding assay using Bocillin-FL, read-out: P. aeruginosa PBP3 Potency.
From the text: as §1

Experiment [3] has as its system A. baumannii CDC-0036. Put plainly: microbe, parasite or virus in culture. It is filed as cell-based. The conditions noted are these: Acinetobacter baumannii, CDC0036, read-out: MIC, A. baumannii CDC-0036.
Experiment [4] has as its system A. baumannii CDC-0033. Put plainly: microbe, parasite or virus in culture. It is filed as cell-based. The conditions noted are these: Acinetobacter baumannii, CDC0033, read-out: MIC, A. baumannii CDC-0033.
In experiment [5] the test system is P. aeruginosa ATCC 35151. Put plainly: microbe, parasite or virus in culture. It counts as cell-based. As to conditions: Pseudomonas aeruginosa, ATCC35151, read-out: Minimum inhibitory concentration, P. aeruginosa ATCC 35151.
Experiment [6] relates to B. humptydooensis ATCC BAA-2767. The experiment in a line: microbe, parasite or virus in culture. It counts as cell-based. As to conditions: Burkholderia humptydooensis, ATCCBAA2767, read-out: Minimum inhibitory concentration (MIC), B. humptydooensis ATCC BAA-2767.
Experiment [7] concerns P. aeruginosa CDC-0110. The experiment in a line: microbe, parasite or virus in culture. It counts as cell-based. As to conditions: Pseudomonas aeruginosa, CDC0110, read-out: Minimum inhibitory concentration, P. aeruginosa CDC-0110.
Experiment [8] has as its system P. aeruginosa CDC-0054. The experiment in a line: microbe, parasite or virus in culture. It counts as cell-based. As to conditions: Pseudomonas aeruginosa, CDC0054, read-out: Minimum inhibitory concentration, P. aeruginosa CDC-0054.
In experiment [9] the test system is A. baumannii CDC-0045. Put plainly: microbe, parasite or virus in culture. It is filed as cell-based. As to conditions: Acinetobacter baumannii, CDC0045, read-out: MIC, A. baumannii CDC-0045.
The subject of experiment [10] is P. aeruginosa ATCC 27853. Put plainly: microbe, parasite or virus in culture. It is filed as cell-based. The conditions noted are these: Pseudomonas aeruginosa, ATCC27853, read-out: Minimum inhibitory concentration, P. aeruginosa ATCC 27853.
Experiment [11] relates to A. baumannii ATCC 19606. The experiment in a line: microbe, parasite or virus in culture. It is filed as cell-based. As to conditions: Acinetobacter baumannii, ATCC19606, read-out: MIC, A. baumannii ATCC 19606.
Experiment [12] has as its system P. aeruginosa CDC-0090. The experiment in a line: microbe, parasite or virus in culture. As to conditions: Pseudomonas aeruginosa, CDC0090, read-out: Minimum inhibitory concentration, P. aeruginosa CDC-0090. It is filed as cell-based.
Experiment [13] concerns A. baumannii 1258916. Put plainly: microbe, parasite or virus in culture. It counts as cell-based, Acinetobacter baumannii. The conditions noted are these: Acinetobacter baumannii, 1258916, read-out: MIC, A. baumannii 1258916.
In experiment [14] the test system is B. thailandensis ATCC 700388. Put plainly: microbe, parasite or virus in culture. As to conditions: Burkholderia thailandensis, ATCC700388, read-out: Minimum inhibitory concentration (MIC), B. thailandensis ATCC 700388. It counts as cell-based.
The subject of experiment [15] is P. aeruginosa (ΔmexAB-oprM). Put plainly: Broth microdilution MIC in iron-depleted CAMHB (IDM). It counts as cell-based. As to conditions: Pseudomonas aeruginosa; iron-depleted CAMHB (IDM); […]; read-out: Minimum inhibitory concentration, P. aeruginosa ΔmexAB-oprM.
In experiment [16] the test system is P. aeruginosa CDC-0095. Put plainly: microbe, parasite or virus in culture. It counts as cell-based. The conditions noted are these: Pseudomonas aeruginosa, CDC0095, read-out: Minimum inhibitory concentration, P. aeruginosa CDC-0095.
In experiment [17] the test system is A. baumannii ATCC 17978. Put plainly: microbe, parasite or virus in culture. It is filed as cell-based. As to conditions: Acinetobacter baumannii, ATCC17978, read-out: MIC, A. baumannii ATCC 17978.

T2 sequence (G3XD46 whole entry): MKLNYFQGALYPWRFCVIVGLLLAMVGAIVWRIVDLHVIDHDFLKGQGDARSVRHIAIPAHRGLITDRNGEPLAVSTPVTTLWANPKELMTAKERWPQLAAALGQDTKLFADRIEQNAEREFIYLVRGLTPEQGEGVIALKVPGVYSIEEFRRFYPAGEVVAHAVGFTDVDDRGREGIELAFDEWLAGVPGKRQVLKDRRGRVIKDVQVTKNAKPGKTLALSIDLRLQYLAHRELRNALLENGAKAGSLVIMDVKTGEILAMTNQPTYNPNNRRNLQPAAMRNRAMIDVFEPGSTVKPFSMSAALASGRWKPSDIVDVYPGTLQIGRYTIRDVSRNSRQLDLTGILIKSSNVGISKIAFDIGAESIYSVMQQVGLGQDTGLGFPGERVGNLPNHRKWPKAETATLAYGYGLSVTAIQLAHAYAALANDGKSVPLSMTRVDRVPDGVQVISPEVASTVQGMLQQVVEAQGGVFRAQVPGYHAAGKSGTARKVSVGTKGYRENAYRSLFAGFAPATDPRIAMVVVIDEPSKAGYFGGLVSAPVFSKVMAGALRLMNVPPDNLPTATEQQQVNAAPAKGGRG

On to `O=C(O)c1c(F)ccc2c1OB(O)[C@@H](NC(=O)C(NC(=O)N1CCN(C3CCN(C(=O)c4ccc5[nH]nnc5c4)CC3)C1=O)c1cc(F)c(O)c(O)c1Cl)C2` (stereo partly drawn) [Example 469, (3R)-3-(2-(3-(1-(1H-benzo[d][1,2,3]triazole-5-carbonyl)piperidin-4-yl)-2-oxoimidazolidine-1-carboxamido)-2-(2-chloro-5-fluoro-3,4-dihydroxyphenyl)acetamido)-7-fluoro-2-hydroxy-3,4-dihydro-2H-benzo[e][1,2]oxaborinine-8-carboxylic acid], for which, in experiment [1], the IC50 is < 10 µM.
For the compound `C[C@H]1[C@H](NC(=O)/C(=N\OC(C)(C)C(=O)O)c2csc(N)n2)C(=O)N1S(=O)(=O)O` [aztreonam, reference compound], the EC50 in [2] (beta-lactam validation of FP competition assay, 15 minutes preincubation) is < 0.5 µM.
On to `O=C(O)c1c(F)ccc2c1OB(O)[C@@H](NC(=O)[C@@H](NC(=O)N1CCN(Cc3ccc(O)c(O)c3Cl)C(=O)C1=O)c1ccc(P(=O)(O)O)c(F)c1F)C2` [Example 165, (R)-3-((S)-2-(4-(2-chloro-3,4-dihydroxybenzyl)-2,3-dioxopiperazine-1-carboxamido)-2-(2,3-difluoro-4-phosphonophenyl)acetamido)-7-fluoro-2-hydroxy-3,4-dihydro-2H-benzo[e][1,2]oxaborinine-8-carboxylic acid], for which the MIC in experiment [3] was > 128 µg/mL; in experiment [4], 32 to 64 µg/mL (≈ 41.5 to 83 µM); in experiment [5], < 1 µg/mL; in experiment [6] it was < 1 µg/mL; in experiment [7], < 1 µg/mL; in experiment [8], < 1 µg/mL. Moreover, the MIC in experiment [9] was < 1 µg/mL; in experiment [10], 2 to 4 µg/mL (≈ 2.59 to 5.19 µM); in [11], < 1 µg/mL; in experiment [12], 2 to 4 µg/mL (≈ 2.59 to 5.19 µM); in experiment [13], 2 to 4 µg/mL (≈ 2.59 to 5.19 µM); in experiment [14], < 1 µg/mL. In addition, the MIC in [15] was 2 to 4 µg/mL (≈ 2.59 to 5.19 µM); in experiment [16], < 1 µg/mL; in experiment [17], < 1 µg/mL. For the same compound, the results for the IC50 in experiment [2] and in experiment [1] were 10 to 50 µM and < 10 µM, respectively.
Take `O=C(O)c1c(F)ccc2c1OB(O)[C@@H](NC(=O)C(NC(=O)N1CCN(C3CCN(C(=O)c4cncc(O)c4)CC3)C1=O)c1cc(F)c(O)c(O)c1Cl)C2` (stereo partly drawn) [Example 464, (3R)-3-(2-(2-chloro-5-fluoro-3,4-dihydroxyphenyl)-2-(3-(1-(5-hydroxynicotinoyl)piperidin-4-yl)-2-oxoimidazolidine-1-carboxamido)acetamido)-7-fluoro-2-hydroxy-3,4-dihydro-2H-benzo[e][1,2]oxaborinine-8-carboxylic acid]: the IC50 in [2] and in [1] was < 10 µM each time.
Regarding `O=C(O)c1c(F)ccc2c1OB(O)[C@@H](NC(=O)C(NC(=O)N1CCN(C3CCN(C(=O)c4cc[nH]c(=O)c4)CC3)C1=O)c1cc(F)c(O)c(O)c1Cl)C2` (stereo partly drawn) [Example 465, (3R)-3-(2-(2-chloro-5-fluoro-3,4-dihydroxyphenyl)-2-(2-oxo-3-(1-(2-oxo-1,2-dihydropyridine-4-carbonyl)piperidin-4-yl)imidazolidine-1-carboxamido)acetamido)-7-fluoro-2-hydroxy-3,4-dihydro-2H-benzo[e][1,2]oxaborinine-8-carboxylic acid], the IC50 in [2] and in experiment [1] was < 10 µM each time.
On to `O=C(O)c1c(F)ccc2c1OB(O)[C@@H](NC(=O)[C@@H](NC(=O)N1CCN(Cc3ccc(O)c(O)c3Cl)C(=O)C1=O)c1cccc(P(=O)(O)O)c1)C2` (single isomer, unassigned) [Example 162], for which the MIC is > 128 µg/mL in [3]; > 128 µg/mL in experiment [4]; < 1 µg/mL in experiment [5]; < 1 µg/mL in experiment [6]; 2 to 4 µg/mL (≈ 2.72 to 5.44 µM) in experiment [7]; 2 to 4 µg/mL (≈ 2.72 to 5.44 µM) in experiment [8]. Also, the MIC was > 128 µg/mL in experiment [9]; 2 to 4 µg/mL (≈ 2.72 to 5.44 µM) in [10]; < 1 µg/mL in experiment [11]; 2 to 4 µg/mL (≈ 2.72 to 5.44 µM) in [12]; 32 to 64 µg/mL (≈ 43.6 to 87.1 µM) in experiment [13]; 8 to 16 µg/mL (≈ 10.9 to 21.8 µM) in experiment [14]. Further, the MIC in experiment [15] was 2 to 4 µg/mL (≈ 2.72 to 5.44 µM); in [16] it was 8 to 16 µg/mL (≈ 10.9 to 21.8 µM); in experiment [17], < 1 µg/mL. Further, the IC50 is 10 to 50 µM in experiment [2] and < 10 µM in experiment [1].
